Experimental data: US7309713B2, “Use of the non-opiate analgesic drug flupirtine for the treatment of overactive bladder and associated diseases including urge incontinence, urinary flow problems as a result of prostate hyperplasia and irritable bowel syndrome” (priority 2005, dated 2007)
Where “and” joins values, the source holds several entries; their conditions need not be identical. Equal values may be shown once. Entries after “also recorded” stand apart in the source; their conditions may differ. Where a name gives a salt, the structure may show the parent alone.

Assays:
[1] = test system: Randall-Selitto test in rats; settings: p.o.; cited from earlier work
[2] = test system: Haffner test in mice; settings: p.o.; cited from earlier work
[3] = test system: mean arterial blood pressure; assay: mean arterial blood pressure recorded in the urethane anaesthetised rats of the bladder model
Procedure: The body temperature was maintained at 37° C. by means of an heated small operating table and 2 red light heating lamps. The left carotid artery was prepared and a catheter for continuous blood pressure measurement was inserted and connected to a Statham pressure transducer (Model P23 Db) and connected with a computer-controlled physiological recorder (PMS PR 800, Mumed Systems Ltd London, GB).
For intraduodenal drug administration a polyethylene catheter was inserted into the upper part of the duodenum, about 5 cm downwards from the pylorus and fixed with a purse-string suture. Bilateral ureters were ligated proximally to the bladder to prevent the bladder filling with urine. Urine of the kidneys was drained onto cotton swabs within the abdomen. The urinary bladder was catheterised via the urethra by use of PE 50 polyethylene tubing filled with physiological saline and secured in place by a ligature at the lower part of the urethra. Using a “T”-connector, the bladder catheter was connected to a Statham pressure transducer (Model P23 Db) connected with the physiological recorder (PMS PR 800) to measure intravesicular pressure and to a Infusion pump (TSE, FRG). Continuous recordings of intravesicular pressure and arterial blood pressure were captured onto a 4 channel Linearcorder WR3310 (Western Graphtec, Inc., USA). The experiment was started infusing (0.05 ml/min) the bladder with warmed saline (37-38° C.) to evoke rhythmic bladder contractions by means an infusion pump up to a maximal volume of 1.0 ml. The infusion is stopped after reaching the final volume or with the start of rhythmic bladder contractions.

[4] = test system: volume-induced rhythmic urinary bladder contractions; assay: volume-induced rhythmic urinary bladder contractions in urethane anaesthetised rats (rat model of overactive bladder); type: in vivo, Sprague Dawley rat; settings: for presence/absence of bladder contractions (block grade), individual animal: 55 min period, Table 3; for duration of block, individual animal / number of episodes of block per animal / decrease in frequency, individual animal: individual animals; for mean voiding frequency decreased by: decrease
Text: In the search for new drugs compounds are of interest which affect the central nervous system circuits involved in micturation as well as the peripheral nerves resulting in a decrease in the frequency of the voiding reflex without any effect on bladder contractility. […] The method utilises spontaneous, volume-induced contractions of the urinary bladder in anaesthetised rats and was developed and first described by Dray (J. Pharmacol. Meth. 13:157-165, 1985) to assess the central activity of substances with opioid properties on bladder function. As this model clearly mimics the interplay between smooth muscle function and neuronal control thereof, this model can be also used to predict drug effects in a different disease, i.e. irritable bowl syndrome (IBS).
Aim of the study: To characterise the effects of the analgesic flupirtine maleate on the bladder function we used the model volume-induced contractions of urinary bladder in urethane anaesthetised rats. […] The compounds at the dose range 0.1-10 mg/kg were intraduodenally administered to anaesthetised rats. The intraduodenal route was chosen to mimic the oral route and to avoid the use of solvents necessary for intravenous administration.
• Species: Sprague Dawley rat • Sex: Female • Body weight: 200-270 g • Breeder: Charles River, Sulzfeld • Food/Tap water: pellets, ssniff M/R15, ad libitum, Spezialdiäten GmbH, Soest/Wesffalen, FRG • Conditions in animal housing: Rats were kept conventionally in groups of 6 in macrolon cages No. 4. • Room temperature: 20-24° C. • Relative humidity: 40-70%, deviations from the maximum range caused during cleaning procedure are possible • Light/Dark rhythm: 12/12 h light/dark cycle, light on at 6:00 a.m.
The food was withdrawn 16 hours before intraduodenal drug administration. Tap water was available ad libitum.
Flupirtine maleate or oxybutynin hydrochloride were suspended in hydroxyethylcellulose (0.5%) in demineralised water. The substances were ground in a mortar with pistil. The suspensions were placed on a magnetic stirrer before and during dosing procedures. The substances were freshly prepared in the morning and applied intraduodenally in a volume of 0.4 ml/100 g body weight. Control rats received hydroxyethylcellulose (0.5%) i.d.
The filling material, consisting of small globules, was ground in a mortar with pistil. Thereafter the grounded material was suspended in hydroxyethylcellulose (0.5%) in demineralised water. The suspensions were placed on a magnetic stirrer before and during dosing procedures for 10 minutes. The suspensions were freshly prepared in the morning and applied intraduodenally in a volume of 0.4 ml/100 g body weight to rats. Control rats received the same amount of hydroxyethylcellulose (0.5%) i.d.
The continuous registration lasted 1 hr. […] The frequency was evaluated for 10 min before (baseline) and within the observation period in intervals of 10 minutes starting 5, 20, 35 and 50 min after drug administration. For intraduodenal dosing, drugs were administered via a duodenal polyethylene tube to animals in aqueous suspension of 0.5% hydroxyethylcellulose.

[5] = test system: analgesic effect in rodents; settings: p.o.; cited from earlier work
[6] = test system: isolated organ strips of rat bladder; assay: isolated organ strips of rat bladder contracted with potassium chloride (40 mM); settings: read-out: IC50, concentration needed to counteract the contractile response of potassium chloride by 50%, isolated organ bath
Procedure: Flupirtine was also tested in an in vitro model of detrusor muscle activity. In this model, isolated organ strips of rat bladder was introduced in an isolated organ bath system. […] In this model, flupirtine did show some activity, but the concentration needed to relax the bladder strip was rather high. […] Direct effects on the bladder wall may be of limited relevance for the pharmacological effect. Indeed, this is in line with the observation that the contraction force of the detrusor in above mentioned in vivo models was not influenced at doses which clearly had pharmacological effects on micturation frequency.

[7] = test system: bladder instability after partial ligation of the proximal urethra; assay: bladder hyperactivity/detrusor instability induced by chronic partial outflow obstruction; type: in vivo, rats; settings: cystometry, 6 weeks after partial ligation
Text: A different model of bladder hyperactivity/detrusor instability induced by chronic partial outflow obstruction is also useful to evaluate the efficacy of a compound. Partial obstruction is achieved using partial ligation of the proximal urethra in rats. […] This can be recorded using cystometry. This model more closely resembles the situation during prostate hyperplasia and other diseases resulting in outflow obstruction. Flupirtine is also active in this model.

[8] = 0.1 mg/kg i.d. single dose, group mean
[9] = 1.0 mg/kg i.d. single dose, group mean
[10] = 3.0 mg/kg i.d. single dose, group mean
[11] = 10 mg/kg i.d. single dose, group mean
[12] = 0.1 mg/kg i.d. single dose, group mean, listed as Flupirtine maleate

CCOC(=O)Nc1ccc(NCc2ccc(F)cc2)nc1N [flupirtine maleate, [(2-Amino-6-(4-fluorophenyl)-methyl-amino-3-pyridinyl)-carbamicacid ethylester maleate]]
ED50, Randall-Selitto test [1]: 39 mg/kg p.o. | ED50, analgesic effect in the Haffner test [2]: 28 mg/kg p.o. | mean BP, change in percent from base value (Δ %) [3, 8]: −4.7% | mean BP, change in percent from base value (Δ %) [3, 9]: −6.9% | mean BP, change in percent from base value (Δ %) [3, 10]: −12% | mean BP Post (30-60 min), mean [3, 11]: 79.3-83.3 mm Hg | mean arterial blood pressure decreased by ([3]; 10 mg/kg i.d., decrease): 11% | block X/n (animals with blockade of bladder contraction) ([4]; 0.1 mg/kg i.d. single dose): 2/3 | block, blockade duration (group, min-max) ([4]; 0.1 mg/kg i.d. single dose): 4 to 8 min | amplitude, change in percent from base value (Δ %) [4, 8]: −9.0% | frequency, change in percent from base value (Δ %) [4, 8]: +3.4% | amplitude, change in percent from base value (Δ %) [4, 12]: No effect | frequency, change in percent from base value (Δ %) [4, 12]: No effect | block X/n (animals with blockade of bladder contraction) ([4]; 0.1 mg/kg i.d. single dose, listed as Flupirtine maleate): 2 out of 3 | presence/absence of bladder contractions (block grade), individual animal ([4]; 0.1 mg/kg i.d.): no block; also recorded: (+) (+ or (+) = contractions abolished during 5-10 min time period) | duration of block, individual animal ([4]; 0.1 mg/kg i.d.): ≤ 4 min and ≤ 8 min | number of episodes of block per animal ([4]; 0.1 mg/kg i.d.): 1 | duration of block, individual animal ([4]; 0.1 mg/kg i.d., listed as Flupirtine maleate): 4 min and 8 min | block X/n (animals with blockade of bladder contraction) ([4]; 1.0 mg/kg i.d. single dose): 2 out of 3 and 2/3 | block, blockade duration (group, min-max) ([4]; 1.0 mg/kg i.d. single dose): 4 to 18 min | frequency Post (20-60 min), mean [4, 9]: 7.0-7.0 n/10 min | frequency, change in percent from base value (Δ %) [4, 9]: −8.7% | presence/absence of bladder contractions (block grade), individual animal ([4]; 1.0 mg/kg i.d.): no block; also recorded: + (+ or (+) = contractions abolished during 5-10 min time period); also recorded: (+) (+ or (+) = contractions abolished during 5-10 min time period) | decrease in frequency, individual animal ([4]; 1.0 mg/kg i.d.): 17% and 23% and without influence and frequency by 17% and frequency by 23% | duration of block, individual animal ([4]; 1.0 mg/kg i.d.): 4 to 5 min and 16 min | number of episodes of block per animal ([4]; 1.0 mg/kg i.d.): 1 and 2 | block X/n (animals with blockade of bladder contraction) ([4]; 3.0 mg/kg i.d. single dose): all three and 3/3 | block, blockade duration (group, min-max) ([4]; 3.0 mg/kg i.d. single dose): 5 to 14 min | amplitude Post (30-60 min), mean [4, 10]: 26.3-26.3 mm Hg | frequency, change in percent from base value (Δ %) [4, 10]: −40% | presence/absence of bladder contractions (block grade), individual animal ([4]; 3.0 mg/kg i.d.): ++ (++ = contractions abolished during 10-30 min time period); also recorded: (+) (+ or (+) = contractions abolished during 5-10 min time period); also recorded: + (+ or (+) = contractions abolished during 5-10 min time period) | mean voiding frequency decreased by ([4]; 3 mg/kg i.d.): 40% | decrease in frequency, individual animal ([4]; 3.0 mg/kg i.d.): frequency by 29%; also recorded: by 50%; also recorded: frequency by 41% | duration of block, individual animal ([4]; 3.0 mg/kg i.d.): 14 min and block, 6 min block, starting and ≤ 5 min and 8 min | animals with voiding contractions abolished over the whole observation period ([4]; 10 mg/kg i.d.): 1/3 | block X/n (animals with blockade of bladder contraction) ([4]; 10 mg/kg i.d. single dose): 3/3 | block, blockade duration (group, min-max) ([4]; 10 mg/kg i.d. single dose): 26 to 56 min | amplitude, change in percent from base value (Δ %) [4, 11]: −26% | frequency, change in percent from base value (Δ %) [4, 11]: −57% | presence/absence of bladder contractions (block grade), individual animal ([4]; 10 mg/kg i.d.): ++ (++ = contractions abolished during 10-30 min time period); also recorded: +++ (+++ = contractions abolished during 30-60 min time period) | mean voiding frequency decreased by ([4]; 10 mg/kg i.d.): 57% | decrease in frequency, individual animal ([4]; 10 mg/kg i.d.): frequency by 68%; also recorded: in frequency by 87%; also recorded: block decrease in frequency by 57% | duration of block, individual animal ([4]; 10 mg/kg i.d.): 26 min and 29 min and 55 min and 39 min | mean pressure peaks of the amplitude diminished/reduced by ([4]; 10 mg/kg i.d., reduction): 26% | doses with therapeutic effect in the model volume-induced contractions in urinary bladder ([4]; rat, in vivo): 1-3 mg/kg p.o. | doses of first analgesic efficacy [5]: 25-50 mg/kg p.o.

CCOC(=O)Nc1ccc(NCc2ccc(F)cc2)nc1N [flupirtine, 2-amino-3-carbethoxyamino-6-(4-fluorobenzylamino)-pyridine]
IC50 [6]: 7.5 µM | effect on peripheral blood pressure ([3]; summary over the doses tested): not cause any effect | activity in the chronic partial outflow obstruction model [7]: active | fold higher activity in the bladder model than in the analgesia tests ([4]; compared with analgesic ED50 values): 3-10 fold | intraduodenal dose at which the first effects became visible ([4]; intraduodenal): 3 mg/kg
